Data reported in US10561638B2, “Methods for treating dependence” (Biotie Therapies, Inc., priority 2007, dated 2020).

Target: T1, bovine dopamine β-hydroxylase (Bos taurus, UniProt P15101)
T1 construct: Bovine DBH from adrenal glands was obtained from Sigma Chemical Co; purchased Sigma Chemicals (St Louis, Mo., USA); host or cells: bovine adrenal glands
T1 sequence (P15101 1-610): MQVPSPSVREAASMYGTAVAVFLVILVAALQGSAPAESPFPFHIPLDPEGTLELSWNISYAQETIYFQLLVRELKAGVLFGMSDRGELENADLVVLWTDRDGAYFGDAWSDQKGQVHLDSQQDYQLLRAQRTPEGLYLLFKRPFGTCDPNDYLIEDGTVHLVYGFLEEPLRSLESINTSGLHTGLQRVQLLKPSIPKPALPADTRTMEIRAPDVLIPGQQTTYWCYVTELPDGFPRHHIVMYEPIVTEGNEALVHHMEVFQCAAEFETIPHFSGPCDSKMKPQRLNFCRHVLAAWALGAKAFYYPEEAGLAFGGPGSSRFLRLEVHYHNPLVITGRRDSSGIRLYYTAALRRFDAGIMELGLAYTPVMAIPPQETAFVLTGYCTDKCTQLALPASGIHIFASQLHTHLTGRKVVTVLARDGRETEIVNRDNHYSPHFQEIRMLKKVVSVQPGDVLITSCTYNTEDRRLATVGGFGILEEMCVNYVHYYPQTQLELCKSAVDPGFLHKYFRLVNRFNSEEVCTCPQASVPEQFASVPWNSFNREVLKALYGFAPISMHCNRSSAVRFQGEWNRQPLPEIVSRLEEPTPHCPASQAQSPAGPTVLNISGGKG
Assay: DBH assay, conversion of tyramine to octopamine
Assay type: biochemical
Protocol: Bovine and human dopamine β-hydroxylase activity were assayed by measuring the conversion of tyramine to octopamine. Bovine adrenal dopamine β-hydroxylase was obtained from Sigma Chemicals (St Louis, Mo., USA) whereas human dopamine β-hydroxylase was purified from the culture medium of the neuroblastoma cell line SK-N-SH. The assay was performed at pH 5.2 and 32° C. in a medium containing 0.125 M NaAc, 10 mM fumarate, 0.5-2 μM CuSO4, 0.1 mg·ml^−1 catalase, 0.1 mM tyramine and 4 mM ascorbate. In a typical assay, 0.5-1 milliunits of enzyme were added to the reaction mixture and, subsequently, a substrate mixture containing catalase, tyramine and ascorbate was added to initiate the reaction (final volume of 200 μl). Samples were incubated with or without the appropriate concentration of nepicastat or Compound B at 37° C. for 30 to 40 minutes. The reaction was quenched by the stop solution containing 25 mM EDTA and 240 μM 3-hydroxytyramine (internal standard). The samples were analyzed for octopamine by reverse phase high pressure liquid chromatography (HPLC) using ultraviolet-detection at […]. The HPLC chromatography run was carried out at the flow rate of 1 ml·min^−1 using a LiChroCART 125-4 RP-18 column and isocratic elution with 10 mM acidic acid, 10 mM 1-heptane sulfonic acid, 12 mM tetrabutyl ammonium phosphate and 10% methanol. The remaining percent activity was calculated based on controls, corrected using internal standards and fitted to a non-linear four-parameter concentration-response curve.
DBH activity was assayed by measuring the conversion of tyramine to octopamine. […] The samples were analyzed for octopamine by reverse phase HPLC using UV detection at […]. The remaining percent activity was calculated based on controls (without inhibitor), corrected using internal standards and fitted to a non-linear 4-parameter concentration-response curve to obtain IC50 values.
An HPLC assay was used to measure DBH activity using tyramine and ascorbate as substrates. […] The samples (150 μl) were loaded to a Gilson autosampler and analyzed by HPLC using UV detection at 280 nm. […]

Row | Structure (SMILES) | IC50 (0.1 mM tyramine, 4 mM ascorbate, pH 5.2) | potency of nepicastat relative to Compound B (bovine DBH) | potency of nepicastat relative to SKF-102698 (bovine enzyme)
1 | Fc1cc(F)cc(Cn2cc[nH]c2=S)c1 [SKF-102698, reference compound] | 67 ± 4.2 nM |  | 
2 | Cl.NCc1c[nH]c(=S)n1[C@H]1CCc2c(F)cc(F)cc2C1 [nepicastat, (S)-5-Aminomethyl-1-(5,7-difluoro-1,2,3,4-tetrahydronaphth-2-yl)-2,3-dihydro-2-thioxo-1H-imidazole hydrochloride] |  | 3 fold | 8 fold
